From patent publication US11536685B2, “High throughput assay for identifying microbial redox enzymes” (TRUSTEES OF BOSTON UNIVERSITY, priority 2020, dated 2022)
Read-outs that look alike come from different tables or passages of the source.

Columns and labels:
NicA2 [1] = target: T1, NicA2 (Pseudomonas putida, UniProt F8G0P2); assay: Chronoamperometric NicA2 electrochemical nicotine biosensor; assay type: biochemical, Pseudomonas putida S16; parameters: poly-histidine; made in house; host or cells: E. coli BL21 (DE3); details: for chronoamperometric response to compound alone: added in the middle of a chronoamperometric experiment
Protocol: Sensor Preparation: Electrochemical experiments were performed with VersaSTAT MC™ (Ametek Inc.™, Pennsylvania, Pa.). Sensors were prepared with Screen-Printed Prussian Blue/Carbon Electrode (Metrohm USA™, Riverview, Fla.). […] The sensors were allowed to dry overnight at 4° C. with no light prior to use.
Chronoamperometric responses were recorded over time, with a potential −0.2 V (versus Ag/AgCl). […] Similar experiments were performed to evaluate the selectivity of the sensor to cotinine.
The electrochemical biosensor was composed of a Screen-Printed Prussian Blue/Carbon Electrode with a Ag/AgCl reference electrode (RE). […] Chronoamperometric responses were recorded over time with a potential −0.2 V versus the RE.
The selectivity of the biosensor was evaluated by measuring the chronoamperometric response in the presence of common interferents at relevant physiological concentrations in sweat (see e.g., FIG. 22C).

nicA2 [2] = target: T2, nicA2 (Pseudomonas putida, UniProt F8G0P2); assay: FACS percentage of fluorescent cells on nicA2 induction; assay type: cell-based; details: induced with 50 μM IPTG; APEX2, AUR and nicotine present
T2 construct: expressed in transfected cells; host or cells: E. coli
T2 sequence (F8G0P2 39-482): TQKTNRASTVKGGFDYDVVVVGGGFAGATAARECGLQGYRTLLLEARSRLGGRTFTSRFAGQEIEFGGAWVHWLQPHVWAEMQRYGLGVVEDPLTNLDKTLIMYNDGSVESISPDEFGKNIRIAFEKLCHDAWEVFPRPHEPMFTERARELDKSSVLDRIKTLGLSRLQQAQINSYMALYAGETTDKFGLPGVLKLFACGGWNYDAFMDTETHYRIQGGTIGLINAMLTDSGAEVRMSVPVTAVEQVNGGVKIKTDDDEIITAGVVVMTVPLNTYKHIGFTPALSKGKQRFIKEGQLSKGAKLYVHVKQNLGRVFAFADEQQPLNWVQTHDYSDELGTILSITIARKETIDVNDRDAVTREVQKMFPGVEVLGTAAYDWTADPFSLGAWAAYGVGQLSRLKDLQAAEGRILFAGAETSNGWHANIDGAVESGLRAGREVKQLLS

[3] = test system: Rosetta2 (DE3) cells expressing MAO; assay: Cell viability of Rosetta2 (DE3) cells expressing MAO; assay type: cell-based, E. coli
C. ammoniagenes MAO = assay: AUR fluorescence assay in Rosetta2 (DE3) cells expressing MAO; assay type: cell-based
candidate MRE = assay: Optimized MRE assay, clone responsive to hydrocortisone; assay type: cell-based; details: Rosetta2 (DE3) cells, clone from mixture of seven gDNA libraries
Source text: Further analysis of the fluorescence cells identified two clones that expressed a candidate MRE responsive to lidocaine (FIG. 40A) and two clones that were responsive to cortisol (FIG. 40B). Additionally, the inventors also discovered one clone expressing a candidate MRE responsive to hydrocortisone (FIGS. 41A-41F).

NicA2 [4] = target: T1, NicA2; assay: AUR fluorescence of cells expressing APEX2 and NicA2; assay type: cell-based, Pseudomonas putida S16
C41 cells expressing MAO = assay: Cell viability of C41 cells expressing MAO; assay type: cell-based, E. coli; details: C41 AUR fluorescing cells expressing MAO

Compound	cell viability [3]	AUR fluorescence (C. ammoniagenes MAO)	cell viability as compared to Rosetta2 (DE3) cells (C41 cells expressing MAO)	further results
CN1C(=O)CC[C@H]1c1cccnc1 [Cotinine]	–	–	–	effect upon the response to nicotine (NicA2 [1]; 200 μM nicotine solution added to solution of the compound): minimal effect
CC(C)S[C@@H]1O[C@H](CO)[C@H](O)[C@H](O)[C@H]1O [IPTG, isopropyl b-D-1-thiogalactopyranoside]	–	–	–	percentage of cells fluorescent (nicA2 [2]): 79.3%
NCc1ccccc1 [benzylamine]	do not decrease cell viability	produce fluorescent signal	–	–
C[C@]12CCC(=O)C=C1CC[C@@H]1[C@@H]2[C@@H](O)C[C@@]2(C)[C@H]1CC[C@]2(O)C(=O)CO [hydrocortisone]	–	–	–	fluorescence over time as compared to no hydrocortisone (candidate MRE): increased fluorescence
c1cncc(C2=NCCC2)c1 [myosmine]	–	–	–	response to nicotine addition after NicA2 was inhibited by myosmine (NicA2 [1]): Minimal responses; chronoamperometric response to compound alone (NicA2 [1]): Minimal responses; chronoamperometric response to compound alone (NicA2 [1]; listed as Myosmine): Minimal response; response to nicotine addition after NicA2 was inhibited by myosmine (NicA2 [1]; listed as Myosmine): Minimal response; fluorescence of cells expressing APEX2 and NicA2 (NicA2 [4]): not
CN1CCCC1c1cccnc1 (stereo not drawn) [nicotine]	substantially decreased	–	–	time of return to baseline (NicA2 [1]; 200 μM nicotine): 6000 s; time to maximal current (NicA2 [1]; 200 μM nicotine): 4000 s; Maximal current (NicA2 [1]; 200 μM nicotine, 2 nmol NicA2, −0.2 V versus Ag/AgCl, PBS): ~250 nA; fluorescence of cells expressing APEX2 and NicA2 (NicA2 [4]): robust fluorescence
NCC(O)c1ccc(O)cc1 (stereo not drawn) [octopamine]	do not decrease cell viability	produce fluorescent signal	decreased viability	–
NCCc1c[nH]c2ccccc12 [tryptamine]	do not decrease cell viability	produce fluorescent signal	decreased viability	–
NCCc1ccc(O)cc1 [tyramine]	do not decrease cell viability	produce fluorescent signal	decreased viability	–
